Assay results from patent publication US5348941A, “Stabilizers for fibroblast growth factors” (Merck & Co., Inc., priority 1992, dated 1994).
One block for each molecule: values may come before it.

Legend:
aFGF [1] = molecular target: T1, aFGF (Homo sapiens, UniProt P05230); test: Thermal denaturation (Tm) of aFGF by circular dichroism; assay type: biochemical; details: for Tm of aFGF (maximum Tm induced by ligand), circular dichroism: PBS pH 7.2, excess ligand (1-3X by weight; 120 mM sodium sulfate, 10 mM tetrapolyphosphate)
T1 construct: The recombinant derived, 140 amino add form is the preferred form of aFGF; N-terminal methionine (MetHaFGF); made in house; host or cells: microbial cells (preferred embodiment)
Experimental: Circular Dichroism (CD) spectra are measured with an AVIV 62 DS spectropolarimeter. Samples of aFGF at about 100 μg/ml in a PBS buffer (6 mM sodium phosphate, 120 mM NaCl, pH 7.2) containing various ligands are placed into 1 mm pathlength cells and the cell temperature is controlled by circulating a water/ethylene glycol mixture through the cell holder. Thermal denaturation is carded out under computer control by increasing the temperature of the water bath in 2° C. increments, followed by a two-minute equilibration period at each temperature to allow the sample to reach thermal equilibrium. Reproducibility of the midpoint of these temperature melting curves (Tm) is ±2° C.
The maximum Tm values induced by 12 different ligands as determined by circular dichroism measurements at 228 nm are summarized in the first column of Table II. All of these ligands stabilize aFGF by 15°-25° C. in a manner similar to that originally observed with heparin. […] Furthermore, sulfate unions are found near analogous residues in the crystal structure of basic FGF, Eriksson et al., Proc. Natl. Acad. Sd. USA 88:3441-3445 (1991); Zhang et al., Proc. Natl. Acad. Sci. USA 88:3446-3450 (1991). Consequently, it seemed important to examine the ability of these ligands to stabilize aFGF during thermal denaturation as monitored by both fluorescence and circular dichroism. The Tm value of aFGF increased from 27° C. to 43° C. (fluorescence)and 45° C. to 51° C. (CD) when a 100 molar excess (3X by weight) of (IrCl6)^-3 was present. Similarly, sulfate union (120 mM) produced a species that was even more dramatically stabilized, melting at 57° C. (CD).
^(a) Thermal melting temperatures were measured by circular dichroism
Samples contained […] aFGF in PBS buffer pH 7.2 with excess ligand
(1-3× by weight except for 120 mM sodium sulfate and 10 mM

aFGF [2] = molecular target: T1, aFGF; test: Thermal denaturation (Tm) of aFGF by fluorescence spectroscopy; assay type: biochemical; details: PBS pH 7.2
Experimental: Fluorescence spectra are obtained with a Spex Fluorolog-2 spectrofiuorometer using a 1 mm pathlength cuvette. Band passes from 1-2 nm are employed with sample absorptivities maintained below 0.1 at 280 nm. The temperature is controlled either manually or automatically as described above. Reproducibility of thermal denaturation temperatures (Tm) is ± 2° C.
To more directly ascertain the effect of heparin on aFGF stability, the temperature-induced denaturation of aFGF as a function of heparin concentration was monitored by fluorescence spectroscopy. Fluorescence spectra were obtained with a Spex Fluorolog-2 spectrofiuorometer using a 1 mm pathlength cuvette. Band passes from 1-2 nm were employed with sample absorptivities maintained below 0.1 at 280 nm. The temperature was controlled either manually or automatically as described above. Reproducibility of thermal denaturation temperatures (Tm) was ±2° C. […] Experiments were carried out at 100 μg/ml protein (6.3 μM) in a PBS buffer at pH 7.2. Curve drawn through data points for clarity only.
Studies of the stabilization of aFGF by heparin are difficult to interpret because of the inherent heterogeneity of heparin preparations, Lane and Lindahl, Eds. Heparin, Chemical and Biological Properties, Clinical Applications, Edward Arnold, London (1989); Jackson, et al., Physiol. Rev. 71: 481-539 (1991). In order to better understand the polyanionic stabilization of aFGF, a series of well-defined fragments of heparin were examined for their ability to stabilize aFGF against thermal denaturation. These enzymatically prepared and purified fragments varied in size from a disaccharide to a decasaccharide. Each fragment was incubated with aFGF at a 1:1 weight ratio in a PBS buffer. The sample was then stressed by temperature and structural changes in aFGF were monitored by both circular dichroism and fluorescence spectroscopy. […] All samples contained 100 μg/ml aFGF (6.3 μM)in a PBS buffer (pH 7.2) with 100 μg/ml of each heparin fragment.
Since these fragments of heparin have a well-defined molecular weight, the molar ratio of aFGF to ligand during these thermal denaturation experiments can be calculated. The Tm of aFGF as a function of the molar concentration of the hexasaccharide was measured by fluorescence spectroscopy. Fluorescence spectra were obtained with a Spex Fluorolog-2 spectrofiuorometer using a 1mm pathlength cuvette. Band passes from 1-2 nm were employed with sample absorptivities maintained below 0.1 at 280 nm. The temperature was controlled either manually or automatically as described above. Reproducibility of thermal denaturation temperatures (Tm) was ±2° C.
Analogous to the heparin experiments illustrated in Example 1 (FIG. 3), aFGF thermal stability was monitored by fluorescence spectroscopy as a function of concentration for several other of the polyanions. […] All samples contained 100 μg/ml of aFGF (6.3 μM) in a PBS buffer at pH 7.2.

[3] = Storage stability of aFGF formulations (protein mass and biological activity); details: versus EDTA or EGTA
Description: Stabilization of aFGF can be determined by several independent methods including turbidity measurements, spectroscopic techniques, maintenance of protein mass, mitogenic activity and copper catalyzed oxidation. Since acidic fibroblast growth factor is unstable at physiological temperatures (undergoing large structural changes, including aggregation, which results in a loss of mitogenic and wound healing activity), human aFGF stability can be monitored by evaluating the turbidity of the pharmaceutical composition by following the kinetics of temperature induced aggregation of unfolded protein.

[4] = test system: BALB/c 3T3 A31 fibroblasts; test: Fibroblast mitogenic assay ([3H]-thymidine incorporation into DNA); assay type: cell-based; parameters: Bioactivity (mitogenic activity of aFGF in the presence of ligand): unit not given here; details: complete absence of heparin; < = response did not plateau; * = cell death observed
Experimental: Biological activity of the formulation of the instant invention is determined by a modification of the fibroblast mitogenic assay as described by Linemeyer et al. in European Patent Application, Publication No. 259,953. BALB/c 3T3 A31 fibroblasts (American Type Culture Collection) are plated at about 3×10^5 cells per 32 cm^2 wells in culture media containing about 10% heat-inactivated calf serum and incubated in about 7% CO2 (pH 7.35±0.05). The cells become fully quiescent by replacing the media with serum free media at about 6, about 24 hours and about 48 hours later. At about 53 hours after plating samples of the various formulations are added and about 0.12 μg of dexamethasone are added. At about 65 hours each well is supplemented with about 0.4 μCi of [methyl-^3 H]-thymidine (20 Ci/mmole, Dupont) and 0.6 μg of unlabeled thymidine (Sigma), and at 80 hours the cells are processed for determination of radiolabel incorporation into DNA. Each dose-response point is the average of at least quadruplicate determinations. Other cell types such vascular endothelial cells and corneal endothelial cells can be employed to determine in vitro mitogenicity. The procedures are described in detail by Thomas et al., Proc. Natl. Acad. Sci. USA 82:6409-6431 (1985).
^(d) Mitogenic activity of aFGF was measured in the presence of ligan
indicated in the complete absence of heparin.
*indicates cell death observed during assay.
Biological activity of the formulation of the instant invention was determined by a modification of the fibroblast mitogenic assay as described by Linemeyer et al. in European Patent Application, Publication No. 259,953. BALB/c 3T3 A31 fibroblasts (American Type Culture Collection) were plated at 3×10^5 cells per 32 cm^2 well in culture media containing about 10% heat-inactivated calf serum and incubated in 7% CO2 (pH 7.35±0.05). The cells become fully quiescent by replacing the media with serum free media at 6, 24 hours and 48 hours later. At 53 hours after plating samples of the various formulations were added and 0.12 μg of dexamethasone was added, at 65 hours each well was supplemented with 0.4 μCi of [methyl-^3 H]-thymidine (20 Ci/mmole, Dupont) and 0.6 μg of unlabeled thymidine (Sigma), and at 80 hours the cells were processed for determination of radiolabel incorporation into DNA. Each dose-response point is the average of at least quadruplicate determinations. Other cell types such vascular endothelial cells and corneal endothelial cells can be employed to determine in vitro mitogenidty. The procedures are described in detail by Thomas et al., Proc. Natl. Acad. Sci. USA 82:6409-6431 (1985).

aFGF [5] = molecular target: T1, aFGF; test: Copper-catalyzed oxidation of aFGF thiol groups; assay type: biochemical; details: ligand 3X by weight; sodium sulfate 120 mM, tetrapolyphosphate 10 mM
Experimental: Copper-catalyzed oxidation of aFGF is carried out in the following manner. Acidic FGF (about 80 μg/ml) is incubated in a 20 mM Tris, 0.15M potassium chloride, pH 8 solution containing about 20 μM cuptic chloride for varying periods of time at room temperature. The reaction was terminated by the addition of 100 mM EDTA in the same buffer. A solution of about 0.7 ml of 0.25M Tris (about pH 8) containing about 2 mM EDTA and about 7 M GuHC1 is then added followed by about 35 μl of 4 mg/ml of DTNB (Sigma). Samples were incubated for 30 minutes, filtered through a 0.22 micron filter and the optical density measured at about 412 nm to determine sulfhydryl content, Riddles et al., Meth. Enzymol. 9:49-60 (1983). Relative standard deviation of the obtained values during time course experiments is 12%.
Acidic FGF contains three free cysteine residues at positions […], 83 and 117 in the polypeptide chain. […] It has also been shown that the copper catalyzed oxidative formation of a disulfide bond in the wild-type aFGF inactivates the protein in an in vitro mitogenic assay, Ortega et al., J. Biol. Chem. 266:5842-5846 (1991). Therefore, it was of interest to determine the extent to which heparin can stabilize aFGF against inactivation by oxidation. […] Samples contained 80 μg/ml aFGF with (a) 3X heparin by weight, (b) 0.1X heparin by weight and (c) buffer alone. As heparin was introduced and its concentration increased, the rate of copper-catalyzed oxidation decreased. For example, after 20 minutes, greater than 95% of the cysteine residues of aFGF are protected from oxidation with 3X heparin. FIG. 4B illustrates the fraction of remaining reactive thiol groups after a 10-minute incubation with cupric chloride as a function of heparin concentration.
Some aggregation of aFGF occurs under the conditions of these experiments presumably due to at least partial intermolecular disulfide formation. Thus, these measurements could simply be a measurement of the loss of solubility induced by copper association with aFGF. Several experiments, however, argue against this possibility. First, previous work has shown that at dilute protein concentration, copper does indeed catalyze oxidation of thiol groups of aFGF, Ortega et al., J. Biol. Chem. 266:5842-5846 (199 1 ). Second, as a control experiment, the copper-catalyzed oxidation of aFGF was carded out in a buffer containing 6 M GuHCl. Under these denaturing conditions, nearly 100% of the thiol groups in solution were lost after 10 minutes without visible aggregation. […] Regardless of the precise mechanism, copper addition is a distinct mechanism of inactivation compared to thermal stress.
Similar protection against oxidation experiments were carried out with other negatively charged compounds with an excess of ligand (3X by weight except for sodium sulfate at 120 mM and tetrapolyphosphate at 10 mM) added to aFGF before copper catalyzed oxidation. As shown in the second column of Table 2, all of these agents at least partially protect the cysteine residues of aFGF from oxidation.
^(b) Percentage of aFGF thiols remaining in solution after 10 min
incubation with cupric chloride. Experimental conditions are described in
FIG. 10. All samples contained ligand at 3× (by weight) except
sodium sulfate (120 mM) and tetrapolyphosphate (10 mM).

T1 sequence (P05230 16-155 limits assumed): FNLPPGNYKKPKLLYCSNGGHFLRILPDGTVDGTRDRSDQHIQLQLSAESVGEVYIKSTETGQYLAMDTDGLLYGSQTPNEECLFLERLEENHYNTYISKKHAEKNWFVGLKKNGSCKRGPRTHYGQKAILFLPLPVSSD

Molecule: O=C(O)CC(O)(CC(=O)O)C(=O)O [citrate]
effectiveness of chelating agent in stabilizing the aFGF-stabilizer-HEC combination [3]: not as effective as EDTA or EGTA

Molecule: O=S(=O)([O-])[O-].[Na+].[Na+] [Sodium Sulfate, sodium sulfate]
Bioactivity (mitogenic activity of aFGF in the presence of ligand) [4]: 0 | Tm of aFGF (maximum Tm induced by ligand), circular dichroism (aFGF [1]): 57 °C | Cu Oxidation (% SH Lost in 10 Mins) (aFGF [5]): 25%

Molecule: sulfated γ-cyclodextrin
Tm of aFGF (maximum Tm induced by ligand), circular dichroism (aFGF [1]): 70 °C | Cu Oxidation (% SH Lost in 10 Mins) (aFGF [5]): 5%

Molecule: O=C(O)C1=C[C@H](O)[C@@H](OS(=O)(=O)O)[C@H](O[C@H]2[C@H](O)[C@@H](NS(=O)(=O)O)[C@@H](O)O[C@@H]2COS(=O)(=O)O)O1 [disaccharide, Δ.orgate.Ap2S(1→4)-α-D-GlcNp2S6S]
effect of heparin fragment on Tm of aFGF (aFGF [2]; 1:1 weight ratio, fluorescence and circular dichroism): did not influence the Tm of aFGF

Further lines, with some results ahead:

Tm of aFGF, circular dichroism (aFGF [1]; 3X ligand by weight): 51 °C | thermal melting temperature (Tm) of aFGF, fluorescence (aFGF [2]; 3X ligand by weight): 43 °C
Molecule: [Cl][Ir-3]([Cl])([Cl])([Cl])([Cl])[Cl] [(IrCl6)^-3, reference compound]

effectiveness of chelating agent in stabilizing the aFGF-stabilizer-HEC combination [3]: not as effective as EDTA or EGTA
Molecule: N[C@@H](Cc1c[nH]cn1)C(=O)O [histidine]

Tm of aFGF (maximum Tm induced by ligand), circular dichroism (aFGF [1]): 65 °C
Molecule: O=S(=O)(O)OC[C@H]1O[C@@](COS(=O)(=O)O)(O[C@H]2O[C@H](COS(=O)(=O)O)[C@@H](OS(=O)(=O)O)[C@H](OS(=O)(=O)O)[C@H]2OS(=O)(=O)O)[C@@H](OS(=O)(=O)O)[C@@H]1OS(=O)(=O)O [Sucrose octasulfate, sucrose octasulfate]
Bioactivity (mitogenic activity of aFGF in the presence of ligand) [4]: 2.5
